Experimental findings from ChEMBL document CHEMBL4813985, “Lead optimization generates selenium-containing miconazole CYP51 inhibitors with improved pharmacological profile for the treatment of fungal infections” (Eur J Med Chem, 2021) are described below.

For orientation: MIC means the lowest concentration found to suppress growth.

In brackets after ≈: the same amount, converted by molar mass.

What all share (type): functional
Test [1] concerns Candida albicans. As to the kind of experiment: Antifungal activity against fluconazole-resistant Candida albicans 904 assessed as inhibition of microbial growth after 24 hrs by broth microdilution method. On the technique in general: Broth dilution looks for growth in wells or tubes with falling amounts of substance.
In a further test the test system is Pichia kudriavzevii. As to the kind of experiment: Antifungal activity against Candida krusei AS2.1045 measured after 24 hrs by broth microdilution assay.
A further test concerns Aspergillus fumigatus. As to the kind of experiment: Antifungal activity against Aspergillus fumigatus CMGCC3.7795 measured after 72 hrs by broth microdilution assay.
Another test relates to Candida parapsilosis. As to the kind of experiment: Antifungal activity against Candida parapsilosis ATCC 22019 measured after 24 hrs by broth microdilution assay. The note with it: Lodderomyces parapsilosis.
Test [2] concerns Candida albicans. Briefly: Antifungal activity against fluconazole-resistant Candida albicans 632 assessed as inhibition of microbial growth after 24 hrs by broth microdilution method.
Test [3] concerns Candida albicans. As to the kind of experiment: Antifungal activity against fluconazole-resistant Candida albicans 17# assessed as inhibition of microbial growth after 24 hrs by broth microdilution method.
In test [4] the test system is Candida albicans. Briefly: Antifungal activity against fluconazole-resistant Candida albicans CaR assessed as inhibition of microbial growth after 24 hrs by broth microdilution method.
For test [5], the system named is Candida albicans. Briefly: Antifungal activity against Candida albicans ATCC SC5314 measured after 24 hrs by broth microdilution assay.
The next test relates to [Candida] zeylanoides. As to the kind of experiment: Antifungal activity against Candida zeylanoides CMGCC2.3739 measured after 24 hrs by broth microdilution assay. The note with it: Dujonia zeylanoides.
Another test concerns Cryptococcus neoformans. As to the kind of experiment: Antifungal activity against Cryptococcus neoformans CMGCC2.3161 measured after 72 hrs by broth microdilution assay.
The test system of test [6] is Candida albicans. As to the kind of experiment: Antifungal activity against fluconazole-resistant Candida albicans 901 assessed as inhibition of microbial growth after 24 hrs by broth microdilution method.
Test [7] relates to Candida albicans. Briefly: Antifungal activity against Candida albicans CPCC400616 measured after 24 hrs by broth microdilution assay.
In another test the test system is Nakaseomyces glabratus. Briefly: Antifungal activity against Candida glabrata measured after 24 hrs by broth microdilution assay.
For test [8], the system named is Candida albicans. Briefly: Potency index, ratio of fluconazole MIC to test compound MIC for Candida albicans CPCC400616 measured after 24 hrs by broth microdilution assay.

With `Cc1cc(C)cc([Se]C(Cn2ccnc2)c2ccc(F)cc2F)c1` (configuration not stated), the MIC in the test with Candida albicans [1] was 8 µg/mL; with Pichia kudriavzevii, 0.13 µg/mL (≈ 0.332 µM); in the test with Aspergillus fumigatus, 8 µg/mL (≈ 20.4 µM); against Candida parapsilosis it was 0.13 µg/mL (≈ 0.332 µM); in the test on Candida albicans [2], 8 µg/mL; with Candida albicans [3], 4 µg/mL. The minimal inhibitory concentration (MIC) in the test with Candida albicans [4] came to 2 µg/mL; against Candida albicans [5], 0.03 µg/mL (≈ 0.0767 µM); in test [Candida] zeylanoides it was 0.5 µg/mL (≈ 1.28 µM); with Cryptococcus neoformans, 0.5 µg/mL (≈ 1.28 µM); in the test with Candida albicans [6], 4 µg/mL; against Candida albicans [7] it was 0.13 µg/mL (≈ 0.332 µM). Also, in the test with Nakaseomyces glabratus, the MIC was 0.5 µg/mL (≈ 1.28 µM). Moreover, in the test on Candida albicans [8], the Ratio was found to be 8.
Take `Cc1ccccc1[Se]C(Cn1ccnc1)c1ccc(Cl)cc1Cl` (configuration not stated): the MIC came to 0.5 µg/mL in the test on Candida albicans [1]; 0.13 µg/mL (≈ 0.317 µM) against Pichia kudriavzevii; 16 µg/mL (≈ 39 µM) with Aspergillus fumigatus; 0.5 µg/mL (≈ 1.22 µM) against Candida parapsilosis; 0.5 µg/mL in the test on Candida albicans [2]; 2 µg/mL in the test on Candida albicans [3]. Moreover, the minimum inhibitory concentration (MIC) in the test with Candida albicans [4] stood at 4 µg/mL; with Candida albicans [5], 0.03 µg/mL (≈ 0.0731 µM); in test [Candida] zeylanoides, 0.5 µg/mL (≈ 1.22 µM); in the test on Cryptococcus neoformans it was 0.5 µg/mL (≈ 1.22 µM); with Candida albicans [6] it was 0.5 µg/mL; against Candida albicans [7], 0.13 µg/mL (≈ 0.317 µM). In the test on Nakaseomyces glabratus, this compound showed an MIC of 0.25 µg/mL (≈ 0.609 µM). Further, the Ratio with Candida albicans [8] was found to be 8.
Consider `Cc1cc(C)cc([Se]C(Cn2ccnc2)c2ccc(Cl)cc2Cl)c1` (configuration not stated), for which the MIC came out at 16 µg/mL in the test on Candida albicans [1]; 0.5 µg/mL (≈ 1.18 µM) with Pichia kudriavzevii; 8 µg/mL (≈ 18.9 µM) against Aspergillus fumigatus; 0.5 µg/mL (≈ 1.18 µM) in the test on Candida parapsilosis; 16 µg/mL in the test on Candida albicans [2]; 16 µg/mL in the test on Candida albicans [3]. Besides, the minimum inhibitory concentration (MIC) with Candida albicans [4] was determined as 8 µg/mL; in the test on Candida albicans [5], 0.06 µg/mL (≈ 0.141 µM); in [Candida] zeylanoides it was 0.5 µg/mL (≈ 1.18 µM); in the test on Cryptococcus neoformans it was 0.5 µg/mL (≈ 1.18 µM); in the test on Candida albicans [6] it was 4 µg/mL; with Candida albicans [7] it was 0.5 µg/mL (≈ 1.18 µM). Besides, in the test with Nakaseomyces glabratus, the minimal inhibitory concentration (MIC) was determined as 0.25 µg/mL (≈ 0.589 µM). In the test with Candida albicans [8], the Ratio amounted to 8.
`Cc1cccc([Se]C(Cn2ccnc2)c2ccc(F)cc2F)c1` (configuration not stated): the MIC with Candida albicans [1] was 1 µg/mL; in the test with Pichia kudriavzevii, 0.06 µg/mL (≈ 0.159 µM); in the test on Aspergillus fumigatus, 8 µg/mL (≈ 21.2 µM); against Candida parapsilosis it was 0.25 µg/mL (≈ 0.663 µM); in the test with Candida albicans [2] it was 0.5 µg/mL; in the test on Candida albicans [3] it was 8 µg/mL. The MIC in the test on Candida albicans [4] came out at 4 µg/mL; in the test on Candida albicans [5], 0.03 µg/mL (≈ 0.0795 µM); in [Candida] zeylanoides, 0.5 µg/mL (≈ 1.33 µM); against Cryptococcus neoformans, 0.25 µg/mL (≈ 0.663 µM); with Candida albicans [6] it was 4 µg/mL; with Candida albicans [7], 0.25 µg/mL (≈ 0.663 µM). In the test with Nakaseomyces glabratus, this compound showed a minimal inhibitory concentration (MIC) of 1 µg/mL (≈ 2.65 µM). For the same compound, the Ratio with Candida albicans [8] is 8.
Take `Fc1ccc([Se]C(Cn2ccnc2)c2ccc(Cl)cc2Cl)cc1` (configuration not stated): the minimum inhibitory concentration (MIC) in the test on Candida albicans [1] was determined as 1 µg/mL; against Pichia kudriavzevii, 0.02 µg/mL (≈ 0.0483 µM); in the test with Aspergillus fumigatus, 8 µg/mL (≈ 19.3 µM); against Candida parapsilosis, 0.25 µg/mL (≈ 0.604 µM); in the test with Candida albicans [2], 1 µg/mL; in the test on Candida albicans [3], 2 µg/mL. Further, the minimal inhibitory concentration (MIC) stood at 8 µg/mL with Candida albicans [4]; 0.03 µg/mL (≈ 0.0724 µM) with Candida albicans [5]; 0.25 µg/mL (≈ 0.604 µM) in test [Candida] zeylanoides; 0.03 µg/mL (≈ 0.0724 µM) in the test with Cryptococcus neoformans; 1 µg/mL in the test with Candida albicans [6]; 0.25 µg/mL (≈ 0.604 µM) against Candida albicans [7]. Further, the MIC against Nakaseomyces glabratus came to 0.5 µg/mL (≈ 1.21 µM). Besides, in the test with Candida albicans [8], the Ratio was 8.
Take `Cc1cccc(C)c1[Se]C(Cn1ccnc1)c1ccc(Cl)cc1Cl` (configuration not stated): the MIC in the test with Candida albicans [1] worked out at 8 µg/mL; in the test on Pichia kudriavzevii, 2 µg/mL (≈ 4.71 µM); against Aspergillus fumigatus, 8 µg/mL (≈ 18.9 µM); in the test with Candida parapsilosis it was 0.5 µg/mL (≈ 1.18 µM); in the test with Candida albicans [2], 8 µg/mL; with Candida albicans [3], 4 µg/mL. For the same compound, the MIC in the test with Candida albicans [4] is 4 µg/mL; in the test on Candida albicans [5] it was 0.06 µg/mL (≈ 0.141 µM); in test [Candida] zeylanoides, 4 µg/mL (≈ 9.43 µM); in the test with Cryptococcus neoformans, 0.5 µg/mL (≈ 1.18 µM); in the test with Candida albicans [6], 16 µg/mL; against Candida albicans [7], 0.13 µg/mL (≈ 0.306 µM). In the test on Nakaseomyces glabratus, the MIC came to 0.13 µg/mL (≈ 0.306 µM). Further, the Ratio with Candida albicans [8] worked out at 8.
`CCc1ccccc1[Se]C(Cn1ccnc1)c1ccc(Cl)cc1Cl` (configuration not stated): the MIC in the test on Candida albicans [1] is 1 µg/mL; against Pichia kudriavzevii, 0.5 µg/mL (≈ 1.18 µM); with Aspergillus fumigatus, 8 µg/mL (≈ 18.9 µM); in the test with Candida parapsilosis, 0.13 µg/mL (≈ 0.306 µM); in the test on Candida albicans [2] it was 16 µg/mL; in the test on Candida albicans [3], 4 µg/mL. In addition, the minimum inhibitory concentration (MIC) in the test on Candida albicans [4] was found to be 2 µg/mL; against Candida albicans [5], 0.03 µg/mL (≈ 0.0707 µM); in [Candida] zeylanoides, 0.5 µg/mL (≈ 1.18 µM); in the test with Cryptococcus neoformans, 0.5 µg/mL (≈ 1.18 µM); in the test with Candida albicans [6], 4 µg/mL; against Candida albicans [7], 0.25 µg/mL (≈ 0.589 µM). The compound also came in with an MIC against Nakaseomyces glabratus of 0.13 µg/mL (≈ 0.306 µM). The Ratio in the test with Candida albicans [8] stood at 8.
Take `COc1ccccc1[Se]C(Cn1ccnc1)c1ccc(F)cc1F` (configuration not stated): the MIC with Candida albicans [1] came out at 8 µg/mL; in the test on Pichia kudriavzevii, 0.5 µg/mL (≈ 1.27 µM); in the test on Aspergillus fumigatus, 8 µg/mL (≈ 20.3 µM); against Candida parapsilosis, 0.13 µg/mL (≈ 0.331 µM); in the test on Candida albicans [2], 16 µg/mL; with Candida albicans [3], 8 µg/mL. In addition, the minimal inhibitory concentration (MIC) was determined as 8 µg/mL in the test on Candida albicans [4]; 0.02 µg/mL (≈ 0.0509 µM) in the test with Candida albicans [5]; 0.13 µg/mL (≈ 0.331 µM) in [Candida] zeylanoides; 1 µg/mL (≈ 2.54 µM) with Cryptococcus neoformans; 4 µg/mL with Candida albicans [6]; 1 µg/mL (≈ 2.54 µM) against Candida albicans [7]. This compound registered a minimum inhibitory concentration (MIC) in the test with Nakaseomyces glabratus of 0.25 µg/mL (≈ 0.636 µM). The Ratio with Candida albicans [8] is given as 8.
